According to patent US9963434B2, “N-arylmethyl sulfonamide negative modulators of NR2A” (LUC THERAPEUTICS, priority 2013, dated 2018):
Where two headings read alike, the source gives them in different places.

Target: NR1/NR2A (Homo sapiens (Human), UniProt Q05586+Q12879)
Assay: FDSS Ca2+ influx inhibition assay in HEK293 cells expressing NR1/NR2A
Type: cell-based
Details: 3 μM glutamate, 3 μM glycine, 1 mM Ca2+
How it was run: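 Fluo-8-loaded HEK293 NR1/NR2A cells preincubated 10 min with compound at 10 μM final (0.1% DMSO) in Ca2+/Mg2+-free HBSS with 20 mM HEPES. Stimulated with 3 μM glutamate, 3 μM glycine, 1 mM Ca2+; FDSS recording for 3 min, end/baseline fluorescence ratio compared with MK801.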

[1] = inhibition relative to MK801, read-out: NR2A IC50

Chain of NR1/NR2A (Q12879 23-1464, other chains not shown): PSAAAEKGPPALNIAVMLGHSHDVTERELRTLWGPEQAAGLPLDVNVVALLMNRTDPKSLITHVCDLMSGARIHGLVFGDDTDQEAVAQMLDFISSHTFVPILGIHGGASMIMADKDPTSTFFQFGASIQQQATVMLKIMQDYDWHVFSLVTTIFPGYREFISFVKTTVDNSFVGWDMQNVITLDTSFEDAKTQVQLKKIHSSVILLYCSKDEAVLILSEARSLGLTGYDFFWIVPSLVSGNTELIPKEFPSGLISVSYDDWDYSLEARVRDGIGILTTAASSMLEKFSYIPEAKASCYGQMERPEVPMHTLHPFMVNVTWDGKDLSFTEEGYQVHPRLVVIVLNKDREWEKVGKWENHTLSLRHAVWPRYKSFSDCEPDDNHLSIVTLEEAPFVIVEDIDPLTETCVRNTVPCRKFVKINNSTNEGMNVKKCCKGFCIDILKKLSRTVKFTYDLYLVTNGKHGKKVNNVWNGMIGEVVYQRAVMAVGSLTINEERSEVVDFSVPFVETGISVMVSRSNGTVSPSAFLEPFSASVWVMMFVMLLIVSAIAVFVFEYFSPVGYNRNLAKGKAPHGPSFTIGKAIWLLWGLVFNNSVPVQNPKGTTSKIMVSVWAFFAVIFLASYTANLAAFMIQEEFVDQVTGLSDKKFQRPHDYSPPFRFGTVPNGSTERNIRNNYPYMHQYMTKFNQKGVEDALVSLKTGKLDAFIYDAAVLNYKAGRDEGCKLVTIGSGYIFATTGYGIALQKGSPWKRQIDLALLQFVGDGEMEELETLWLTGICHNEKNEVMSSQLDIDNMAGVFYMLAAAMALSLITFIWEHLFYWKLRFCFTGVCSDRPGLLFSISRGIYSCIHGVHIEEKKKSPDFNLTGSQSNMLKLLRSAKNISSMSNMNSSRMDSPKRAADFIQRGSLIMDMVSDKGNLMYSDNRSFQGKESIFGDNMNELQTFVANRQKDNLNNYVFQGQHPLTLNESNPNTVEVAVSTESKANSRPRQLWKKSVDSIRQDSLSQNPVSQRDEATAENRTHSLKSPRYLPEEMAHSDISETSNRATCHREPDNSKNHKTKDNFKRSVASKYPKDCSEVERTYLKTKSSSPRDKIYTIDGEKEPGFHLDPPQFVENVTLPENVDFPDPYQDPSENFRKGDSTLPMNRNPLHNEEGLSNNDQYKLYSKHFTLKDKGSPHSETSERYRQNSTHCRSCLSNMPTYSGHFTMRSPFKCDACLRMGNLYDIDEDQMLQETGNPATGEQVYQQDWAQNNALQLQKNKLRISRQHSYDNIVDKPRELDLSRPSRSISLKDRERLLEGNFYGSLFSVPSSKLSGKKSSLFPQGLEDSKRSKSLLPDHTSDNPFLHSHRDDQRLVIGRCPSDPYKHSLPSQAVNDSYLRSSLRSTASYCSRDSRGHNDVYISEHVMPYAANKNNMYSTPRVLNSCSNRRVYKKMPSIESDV

IC50 [1] [µM]	IC50 (read-out: Binned Activity) [µM]	Compound
10	> 10	Cc1ncc(CNC(=O)c2cnc(CNC(=O)c3cc(Cl)ccc3F)c(C)n2)s1 [5-{[(5-chloro-2-fluorophenyl)formamido]methyl}-6-methyl-N-[(2-methyl-1,3-thiazol-5-yl)methyl]pyrazine-2-carboxamide]
10	> 10	Cc1ccncc1CNC(=O)c1ccc(CNS(=O)(=O)c2ccc(F)c(Cl)c2)nn1 [6-(3-chloro-4-fluorobenzenesulfon-amidomethyl)-N-[(4-methylpyridin-3-yl)methyl]pyridazine-3-carboxamide]
10	> 10	Cc1ncc(CNC(=O)c2cnc(CNC(=O)c3cccc(C#N)c3)c(C)n2)s1 [5-{[(3-cyanophenyl)formamido]methyl}-6-methyl-N-[(2-methyl-1,3-thiazol-5-yl)methyl]pyrazine-2-carboxamide]
–	1 to 10	COc1ccc(CNC(=O)c2ccc(CNS(=O)(=O)c3ccc(F)c(Cl)c3)cn2)cn1 [5-(3-chloro-4-fluorobenzenesulfon-amidomethyl)-N-[(6-methoxypyridin-3-yl)methyl]pyridine-2-carboxamide]
10	> 10	O=C(NCc1ncccn1)c1ccc(CNS(=O)(=O)c2ccc(F)c(Cl)c2)cn1 [5-(3-chloro-4-fluorobenzenesulfon-amidomethyl)-N-(pyrimidin-2-ylmethyl)pyridine-2-carboxamide]
10	> 10	Cc1ncc(CNC(=O)c2ccc(CNS(=O)(=O)c3ccc(Cl)s3)cn2)s1 [5-(5-chlorothiophene-2-sulfonamidomethyl)-N-[(2-methyl-1,3-thiazol-5-yl)methyl]pyridine-2-carboxamide]
10	> 10	Cc1ncc(CNC(=O)c2ccc(CNS(=O)(=O)c3ccccc3F)cn2)s1 [5-(2-fluorobenzenesulfon-amidomethyl)-N-[(2-methyl-1,3-thiazol-5-yl)methyl]pyridine-2-carboxamide]
10	> 10	O=C(NCc1ccc(Cl)c(F)c1)c1ccc(CNS(=O)(=O)c2ccc(F)c(Cl)c2)cn1 [N-[(4-chloro-3-fluorophenyl)methyl]-5-(3-chloro-4-fluorobenzenesulfon-amidomethyl)pyridine-2-carboxamide]
–	0.1 to 1	Cc1ccncc1CNC(=O)c1cnc(CNS(=O)(=O)c2ccc(F)c(Cl)c2)cn1 [5-(3-chloro-4-fluorobenzenesulfon-amidomethyl)-N-[(4-methylpyridin-3-yl)methyl]pyrazine-2-carboxamide]
10	> 10	CC(=O)N1CCc2cc(S(=O)(=O)NCc3ccc(C(=O)NCc4cnc(C)s4)nc3)ccc21 [5-(1-acetyl-2,3-dihydro-1H-indole-5-sulfonamidomethyl)-N-[(2-methyl-1,3-thiazol-5-yl)methyl]pyridine-2-carboxamide]
10	> 10	Cn1nccc1CNC(=O)c1ccc(CNS(=O)(=O)c2ccc(F)c(Cl)c2)nc1 [6-(3-chloro-4-fluorobenzenesulfon-amidomethyl)-N-[(1-methyl-1H-pyrazol-5-yl)methyl]pyridine-3-carboxamide]
–	0.1 to 1	Cc1ncc(CNC(=O)c2cnc(CNS(=O)(=O)c3cccc(Cl)c3)cn2)s1 [5-(3-chlorobenzenesulfon-amidomethyl)-N-[(2-methyl-1,3-thiazol-5-yl)methyl]pyrazine-2-carboxamide]
10	> 10	Cn1cccc1CNC(=O)c1ccc(CNS(=O)(=O)c2ccc(F)c(Cl)c2)nc1 [6-(3-chloro-4-fluorobenzenesulfon-amidomethyl)-N-[(1-methyl-1H-pyrrol-2-yl)methyl]pyridine-3-carboxamide]
–	1 to 10	O=C(NCc1cncnc1)c1cnc(CNS(=O)(=O)c2ccc(F)c(Cl)c2)cn1 [5-(3-chloro-4-fluorobenzenesulfon-amidomethyl)-N-(pyrimidin-5-ylmethyl)pyrazine-2-carboxamide]
10	> 10	Cc1nc(CNC(=O)c2cnc(CNS(=O)(=O)c3ccc(F)c(Cl)c3)cn2)cs1 [5-(3-chloro-4-fluorobenzenesulfon-amidomethyl)-N-[(2-methyl-1,3-thiazol-4-yl)methyl]pyrazine-2-carboxamide]
10	> 10	Cc1ncc(CNC(=O)c2ccc(CNC(=O)c3ccc(Cl)c(Cl)c3)cn2)s1 [5-{[(3,4-dichlorophenyl)form-amido]methyl}-N-[(2-methyl-1,3-thiazol-5-yl)methyl]pyridine-2-carboxamide]
10	> 10	COc1ccc(CNC(=O)c2ccc(CNS(=O)(=O)c3ccc(F)c(Cl)c3)nc2)cn1 [6-(3-chloro-4-fluorobenzenesulfon-amidomethyl)-N-[(6-methoxypyridin-3-yl)methyl]pyridine-3-carboxamide]
10	> 10	Cc1ncc(CNC(=O)c2cnc(CNS(=O)(=O)c3ccc(Cl)nc3Cl)cn2)s1 [5-(2,6-dichloropyridine-3-sulfonamidomethyl)-N-[(2-methyl-1,3-thiazol-5-yl)methyl]pyrazine-2-carboxamide]

IC50 [1] [µM]	IC50 (read-out: Binned Activity) [µM]	Compound
10	> 10	Cc1ncc(CNC(=O)c2cnc(CNC(=O)c3cccc(F)c3)cn2)s1 [5-{[(3-fluorophenyl)formamido]methyl}-N-[(2-methyl-1,3-thiazol-5-yl)methyl]pyrazine-2-carboxamide]
–	1 to 10	Cc1ncc(CNC(=O)c2cnc(CNS(=O)(=O)c3cc(Cl)ccc3F)c(C)n2)s1 [5-(5-chloro-2-fluorobenzenesulfon-amidomethyl)-6-methyl-N-[(2-methyl-1,3-thiazol-5-yl)methyl]pyrazine-2-carboxamide]
10	> 10	Cc1ncc(CNC(=O)c2cnc(CNC(=O)c3cc(F)cc(F)c3)cn2)s1 [5-{[(3,5-difluorophenyl)form-amido]methyl}-N-[(2-methyl-1,3-thiazol-5-yl)methyl]pyrazine-2-carboxamide]
10	> 10	Cc1nc(C)c(CNC(=O)c2ccc(CNS(=O)(=O)c3ccc(F)c(Cl)c3)nn2)s1 [6-(3-chloro-4-fluorobenzenesulfon-amidomethyl)-N-[(dimethyl-1,3-thiazol-5-yl)methyl]pyridazine-3-carboxamide]
10	> 10	O=C(NCc1cocn1)c1cnc(CNS(=O)(=O)c2ccc(F)c(Cl)c2)cn1 [5-(3-chloro-4-fluorobenzenesulfon-amidomethyl)-N-(1,3-oxazol-4-ylmethyl)pyrazine-2-carboxamide]
–	0.1 to 1	Cn1ccnc1CNC(=O)c1ccc(CNS(=O)(=O)c2ccc(F)c(Cl)c2)nc1 [6-(3-chloro-4-fluorobenzenesulfon-amidomethyl)-N-[(1-methyl-1H-imidazol-2-yl)methyl]pyridine-3-carboxamide]
–	1 to 10	Cc1cnc(CNC(=O)c2cnc(CNS(=O)(=O)c3ccc(F)c(Cl)c3)cn2)cn1 [5-(3-chloro-4-fluorobenzenesulfon-amidomethyl)-N-[(5-methylpyrazin-2-yl)methyl]pyrazine-2-carboxamide]
10	> 10	COc1ccc(CCNC(=O)c2ccc(CNS(=O)(=O)c3ccc(F)c(Cl)c3)cn2)cc1 [5-(3-chloro-4-fluorobenzenesulfon-amidomethyl)-N-[2-(4-methoxyphenyl)ethyl] pyridine-2-carboxamide]
10	> 10	Cc1ncsc1CNC(=O)c1ccc(CNS(=O)(=O)c2ccc(F)c(Cl)c2)nn1 [6-(3-chloro-4-fluorobenzenesulfon-amidomethyl)-N-[(4-methyl-1,3-thiazol-5-yl)methyl]pyridazine-3-carboxamide]
10	> 10	O=C(NCc1cccnc1)c1ccc(CNS(=O)(=O)c2ccc(F)c(Cl)c2)nn1 [6-(3-chloro-4-fluorobenzenesulfon-amidomethyl)-N-(pyridin-3-ylmethyl)pyridazine-3-carboxamide]
10	> 10	CC(=O)N1CCc2cc(S(=O)(=O)NCc3cnc(C(=O)NCc4cnc(C)s4)cn3)ccc21 [5-(1-acetyl-2,3-dihydro-1H-indole-5-sulfonamidomethyl)-N-[(2-methyl-1,3-thiazol-5-yl)methyl]pyrazine-2-carboxamide]
10	> 10	O=C(NCc1ccccn1)c1ccc(CNS(=O)(=O)c2ccc(F)c(Cl)c2)nc1 [6-(3-chloro-4-fluorobenzenesulfon-amidomethyl)-N-(pyridin-2-ylmethyl)pyridine-3-carboxamide]
10	> 10	Cc1ncc(CNC(=O)c2ccc(CNC(=O)c3cc(Cl)ccc3F)cn2)s1 [5-{[(5-chloro-2-fluorophenyl)formamido]methyl}-N-[(2-methyl-1,3-thiazol-5-yl)methyl]pyridine-2-carboxamide]
10	> 10	O=C(NCc1nccs1)c1ccc(CNS(=O)(=O)c2ccc(F)c(Cl)c2)nc1 [6-(3-chloro-4-fluorobenzenesulfon-amidomethyl)-N-(1,3-thiazol-2-ylmethyl)pyridine-3-carboxamide]
10	> 10	C[C@@H](NC(=O)c1ccc(CNS(=O)(=O)c2ccc(F)c(Cl)c2)nn1)c1cncs1 [6-(3-chloro-4-fluorobenzenesulfon-amidomethyl)-N-[(1R)-1-(1,3-thiazol-5-yl)ethyl]pyridazine-3-carboxamide]
10	> 10	O=C(NCc1ncccn1)c1ccc(CNS(=O)(=O)c2ccc(F)c(Cl)c2)nn1 [6-(3-chloro-4-fluorobenzenesulfon-amidomethyl)-N-(pyrimidin-2-ylmethyl)pyridazine-3-carboxamide]
10	> 10	Cc1ncc(CNC(=O)c2cnc(CNS(=O)(=O)c3cc(Cl)ccc3F)cn2)s1 [5-(5-chloro-2-fluorobenzenesulfon-amidomethyl)-N-[(2-methyl-1,3-thiazol-5-yl)methyl]pyrazine-2-carboxamide]
